According to patent US9957271B2, “Substituted bicyclic aza-heterocycles and analogues as sirtuin modulators” (GlaxoSmithKline, LLC, priority 2012, dated 2018):

Legend:
SIRT1 [1] = molecular target: T1, SIRT1 (Homo sapiens, UniProt Q96EB6); experiment: TAMRA based mass spectrometry assay of SIRT1 activity; assay type: biochemical; conditions: TAMRA peptide substrate; for TAMRA EC1.5: concentration giving 150% activation of SIRT1; for Emax: percent maximum fold activation, read-out: TAMRA % Fold Act
T1 sequence (Q96EB6 1-747): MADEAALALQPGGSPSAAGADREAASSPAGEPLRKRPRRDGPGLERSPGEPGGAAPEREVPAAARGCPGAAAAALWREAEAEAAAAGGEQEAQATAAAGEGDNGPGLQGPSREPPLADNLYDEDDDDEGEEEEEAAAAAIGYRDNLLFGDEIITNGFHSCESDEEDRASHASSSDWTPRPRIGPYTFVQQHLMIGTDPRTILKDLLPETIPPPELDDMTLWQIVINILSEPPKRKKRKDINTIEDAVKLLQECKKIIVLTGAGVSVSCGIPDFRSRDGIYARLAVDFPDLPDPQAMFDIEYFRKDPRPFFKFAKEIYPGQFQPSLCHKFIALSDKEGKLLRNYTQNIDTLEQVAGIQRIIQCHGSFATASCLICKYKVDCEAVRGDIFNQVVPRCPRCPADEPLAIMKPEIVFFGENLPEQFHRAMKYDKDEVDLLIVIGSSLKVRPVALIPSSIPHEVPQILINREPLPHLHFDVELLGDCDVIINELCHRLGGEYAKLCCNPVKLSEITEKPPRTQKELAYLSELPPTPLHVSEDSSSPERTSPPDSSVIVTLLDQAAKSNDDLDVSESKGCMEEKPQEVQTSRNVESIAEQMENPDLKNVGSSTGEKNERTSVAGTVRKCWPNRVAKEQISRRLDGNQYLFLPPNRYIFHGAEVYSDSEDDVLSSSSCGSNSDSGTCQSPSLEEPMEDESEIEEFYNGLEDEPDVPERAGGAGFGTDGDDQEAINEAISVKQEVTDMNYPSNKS
In short: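 Deacetylation of a biotinylated, TAMRA-tagged p53-based peptide (0.5 μM) by 10 nM His-tagged SIRT1 with 120 μM βNAD+, 25 °C for 25 min, pH 8 Tris-acetate buffer, across a compound concentration range. Quenched by formic acid and read by mass spec as product peptide or OAADPR; activity relative to DMSO reactions, nicotinamide defining maximal inhibition.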

SIRT1 [2] = molecular target: T1, SIRT1; experiment: Trp mass spectrometry assay of SIRT1 activity; assay type: biochemical; conditions: Trp peptide substrate; for Trp EC1.5: concentration giving 150% activation of SIRT1; for Emax: percent maximum fold activation, read-out: Trp % Fold Act
In short: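 Activation readout: EC1.5 (concentration raising activity 50% over control) and percent maximum activation, from mass-spec quantitation of OAADPR or deacetylated Trp peptide. Reaction: 0.5 μM acetylated Trp peptide, 120 μM βNAD+, 10 nM bacterially expressed N-His SIRT1, pH 7.5 HEPES buffer with […], 25 min at 25° C.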

| TAMRA EC1.5 (SIRT1 [1]) | Emax (SIRT1 [1]) | Trp EC1.5 (SIRT1 [2]) | Emax (SIRT1 [2]) | Structure (SMILES) |
| --- | --- | --- | --- | --- |
| A (EC1.5<1 μM) | ≥ 350% | A (EC1.5<1 μM) | ≥ 350% | Cc1cc(-c2ccccc2C(F)(F)F)nn2c(C(=O)Nc3cccnn3)cnc12 [Compound 514] |
| A (EC1.5<1 μM) | ≥ 350% | A (EC1.5<1 μM) | < 350% | COc1cccc(C(=O)Nc2cnn3ccc(-c4ccccc4C(F)(F)F)nc23)n1 [Compound 521] |
| A (EC1.5<1 μM) | ≥ 350% | C (EC1.5>25 μM) | < 350% | Cc1ccnc(C(=O)Nc2cnn3ccc(-c4ccccc4C(F)(F)F)nc23)c1 [Compound 523] |
| A (EC1.5<1 μM) | ≥ 350% | A (EC1.5<1 μM) | ≥ 350% | O=C(Nc1cccnc1)c1cnn2ccc(-c3ccccc3OC(F)(F)F)nc12 [Compound 530] |
| A (EC1.5<1 μM) | ≥ 350% | B (EC1.5 1-25 μM) | < 350% | O=C(Nc1ccncn1)c1cnn2ccc(-c3ccccc3OC(F)(F)F)nc12 [Compound 533, N-(pyrimidin-4-yl)-5-(2-(trifluoromethoxy)phenyl)pyrazolo[1,5-a]pyrimidine-3-carboxamide] |
| A (EC1.5<1 μM) | ≥ 350% | A (EC1.5<1 μM) | ≥ 350% | O=C(Nc1cccc(CN2CCOCC2)n1)c1cnn2ccc(-c3ccccc3OC(F)(F)F)nc12 [Compound 535] |
| A (EC1.5<1 μM) | ≥ 350% | A (EC1.5<1 μM) | < 350% | COc1cccc(NC(=O)c2cnn3ccc(-c4ccccc4OC(F)(F)F)nc23)n1 [Compound 536] |
| A (EC1.5<1 μM) | ≥ 350% | B (EC1.5 1-25 μM) | ≥ 350% | Cc1cc(-c2ccccc2C(F)(F)F)nn2c(C(=O)Nc3ccncc3F)cnc12 [Compound 541] |
| A (EC1.5<1 μM) | ≥ 350% | A (EC1.5<1 μM) | ≥ 350% | Cc1nc2c(C)cc(-c3ccccc3OC(F)(F)F)nn2c1C(=O)Nc1cccc(N2CC3(COC3)C2)n1 [Compound 545] |
| A (EC1.5<1 μM) | ≥ 350% | B (EC1.5 1-25 μM) | ≥ 350% | Cc1nn2ccc(-c3ccccc3C(F)(F)F)nc2c1C(=O)Nc1cccnc1 [Compound 549] |
| A (EC1.5<1 μM) | ≥ 350% | A (EC1.5<1 μM) | ≥ 350% | Cc1cc(NC(=O)c2cnc3ccc(-c4ccccc4C(F)(F)F)nn23)cc(OC[C@@H](O)CO)n1 [Compound 558] |
| B (EC1.5 1-25 μM) | < 350% | B (EC1.5 1-25 μM) | ≥ 350% | O=C(Nc1ncccn1)c1cnn2ccc(-c3ccccc3OC(F)(F)F)nc12 [Compound 559] |
| C (EC1.5>25 μM) | < 350% | C (EC1.5>25 μM) | < 350% | Cc1nn2ccc(-c3ccccc3C(F)(F)F)nc2c1NC(=O)c1ccncn1 [Compound 572] |
| A (EC1.5<1 μM) | ≥ 350% | B (EC1.5 1-25 μM) | < 350% | Cc1nn2ccc(-c3ccccc3C(F)(F)F)nc2c1NC(=O)c1cccc(N2CCOCC2)n1 [Compound 574] |
| B (EC1.5 1-25 μM) | < 350% | A (EC1.5<1 μM) | < 350% | Cc1nn2ccc(-c3ccccc3C(F)(F)F)nc2c1C(=O)Nc1cccc(O)n1 [Compound 577] |
| B (EC1.5 1-25 μM) | ≥ 350% | A (EC1.5<1 μM) | ≥ 350% | O=C(Nc1cccc(O)n1)c1cnn2ccc(-c3ccccc3OC(F)(F)F)nc12 [Compound 580] |

The next lines start with the compound.

| Structure (SMILES) | TAMRA EC1.5 (SIRT1 [1]) | Emax (SIRT1 [1]) | Trp EC1.5 (SIRT1 [2]) | Emax (SIRT1 [2]) |
| --- | --- | --- | --- | --- |
| Cc1cc(C)nc(NC(=O)c2cnc3c(C)cc(-c4ccccc4C(F)(F)F)nn23)c1 [Compound 516] | A (EC1.5<1 μM) | ≥ 350% | B (EC1.5 1-25 μM) | < 350% |
| O=C(Nc1ccncc1F)c1cnn2ccc(-c3ccccc3C(F)(F)F)nc12 [Compound 517] | B (EC1.5 1-25 μM) | ≥ 350% | B (EC1.5 1-25 μM) | < 350% |
| O=C(Nc1ccc(F)cn1)c1cnn2ccc(-c3ccccc3C(F)(F)F)nc12 [Compound 518] | A (EC1.5<1 μM) | ≥ 350% | B (EC1.5 1-25 μM) | < 350% |
| Cc1cc(C)nc(C(=O)Nc2cnn3ccc(-c4ccccc4C(F)(F)F)nc23)c1 [Compound 524] | A (EC1.5<1 μM) | ≥ 350% | C (EC1.5>25 μM) | < 350% |
| Cc1nc(C(=O)Nc2cnn3ccc(-c4ccccc4C(F)(F)F)nc23)cs1 [Compound 527] | A (EC1.5<1 μM) | ≥ 350% | B (EC1.5 1-25 μM) | < 350% |
| O=C(Nc1ccccn1)c1cnn2ccc(-c3ccccc3OC(F)(F)F)nc12 [Compound 529] | A (EC1.5<1 μM) | ≥ 350% | A (EC1.5<1 μM) | < 350% |
| Cc1cc(-c2ccccc2C(F)(F)F)nn2c(C(=O)Nc3ccc(F)cn3)cnc12 [Compound 542] | A (EC1.5<1 μM) | ≥ 350% | B (EC1.5 1-25 μM) | < 350% |
| COc1cccc(NC(=O)c2c(C)nn3ccc(-c4ccccc4C(F)(F)F)nc23)n1 [Compound 551, N-(6-methoxypyridin-2-yl)-2-methyl-5-(2-(trifluoromethyl)phenyl)pyrazolo[1,5-a]pyrimidine-3-carboxamide] | A (EC1.5<1 μM) | ≥ 350% | A (EC1.5<1 μM) | ≥ 350% |
| Cc1nn2ccc(-c3ccccc3C(F)(F)F)nc2c1C(=O)Nc1cccc(N2CCOCC2)n1 [Compound 552] | A (EC1.5<1 μM) | ≥ 350% | A (EC1.5<1 μM) | ≥ 350% |
| O=C(Nc1cncc(OC[C@H](O)CO)n1)c1cnc2ccc(-c3ccccc3C(F)(F)F)nn12 [Compound 555] | A (EC1.5<1 μM) | ≥ 350% | A (EC1.5<1 μM) | ≥ 350% |
| Cc1nc2c(C)cc(-c3ccccc3C(F)(F)F)nn2c1C(=O)NCc1ccccn1 [Compound 561] | B (EC1.5 1-25 μM) | < 350% | B (EC1.5 1-25 μM) | ≥ 350% |
| Cc1cccc(C(=O)Nc2cnc3ccc(N4CC[C@H](F)C4)nn23)n1 [Compound 565, (S)-N-(6-(3-fluoropyrrolidin-1-yl)imidazo[1,2-b]pyridazin-3-yl)-6-methylpicolinamide] | B (EC1.5 1-25 μM) | ≥ 350% | B (EC1.5 1-25 μM) | < 350% |
| Cc1cc(C)nc(C(=O)Nc2cnc3ccc(N4CC[C@H](F)C4)nn23)c1 [Compound 566] | B (EC1.5 1-25 μM) | ≥ 350% | B (EC1.5 1-25 μM) | < 350% |
| Cc1nn2ccc(-c3ccccc3C(F)(F)F)nc2c1NC(=O)c1cccnc1 [Compound 568] | C (EC1.5>25 μM) | < 350% | C (EC1.5>25 μM) | < 350% |
| Cc1nn2ccc(-c3ccccc3C(F)(F)F)nc2c1NC(=O)c1cnccn1 [Compound 571] | C (EC1.5>25 μM) | < 350% | B (EC1.5 1-25 μM) | < 350% |
| O=C(Nc1cccc(N2CCOCC2)n1)c1cnc2ccc(N3CCCC(C(F)(F)F)C3)nn12 (stereo not shown) [Compound 578] | A (EC1.5<1 μM) | ≥ 350% | A (EC1.5<1 μM) | ≥ 350% |
| O=C(Nc1cnn2ccc(-c3ccccc3OC(F)(F)F)nc12)c1ccncc1 [Compound 583] | B (EC1.5 1-25 μM) | < 350% | C (EC1.5>25 μM) | < 350% |
| O=C(Nc1cnn2ccc(-c3ccccc3OC(F)(F)F)nc12)c1cnccn1 [Compound 584] | B (EC1.5 1-25 μM) | ≥ 350% | C (EC1.5>25 μM) | < 350% |
